According to article PMC4876719 (Cell chemical biology, 2016):

Molecular target: glutathione-S-transferase Pi 1 (GSTP1) (Homo sapiens, UniProt P09211)
Test: CDNB-glutathione conjugation assay with pure GSTP1 after […] min pre-incubation
Format: biochemical

glutathione-S-transferase Pi 1 (GSTP1), sequence (P09211 2-210): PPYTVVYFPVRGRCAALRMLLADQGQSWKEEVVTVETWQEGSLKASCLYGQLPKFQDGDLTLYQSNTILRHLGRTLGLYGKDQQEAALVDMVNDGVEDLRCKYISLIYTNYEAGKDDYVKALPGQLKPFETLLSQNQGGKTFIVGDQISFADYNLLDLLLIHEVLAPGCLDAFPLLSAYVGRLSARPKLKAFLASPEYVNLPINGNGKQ

Substance LAS17 has an IC50 of 500 nM.
